Data taken from patent publication US20170087174A1, “COMBINATION THERAPY REGIMEN FOR TREATMENT OF HCV” (JANSSEN PHARMACEUTICALS, INC., priority 2015, published 2017).
Read-outs that look alike come from different tables or passages of the source.

What was measured:
[1] = target: T1, OATP1B3 (Homo sapiens, UniProt Q9NPD5); conditions: in vitro; cited from earlier work
T1 sequence (Q9NPD5 1-702): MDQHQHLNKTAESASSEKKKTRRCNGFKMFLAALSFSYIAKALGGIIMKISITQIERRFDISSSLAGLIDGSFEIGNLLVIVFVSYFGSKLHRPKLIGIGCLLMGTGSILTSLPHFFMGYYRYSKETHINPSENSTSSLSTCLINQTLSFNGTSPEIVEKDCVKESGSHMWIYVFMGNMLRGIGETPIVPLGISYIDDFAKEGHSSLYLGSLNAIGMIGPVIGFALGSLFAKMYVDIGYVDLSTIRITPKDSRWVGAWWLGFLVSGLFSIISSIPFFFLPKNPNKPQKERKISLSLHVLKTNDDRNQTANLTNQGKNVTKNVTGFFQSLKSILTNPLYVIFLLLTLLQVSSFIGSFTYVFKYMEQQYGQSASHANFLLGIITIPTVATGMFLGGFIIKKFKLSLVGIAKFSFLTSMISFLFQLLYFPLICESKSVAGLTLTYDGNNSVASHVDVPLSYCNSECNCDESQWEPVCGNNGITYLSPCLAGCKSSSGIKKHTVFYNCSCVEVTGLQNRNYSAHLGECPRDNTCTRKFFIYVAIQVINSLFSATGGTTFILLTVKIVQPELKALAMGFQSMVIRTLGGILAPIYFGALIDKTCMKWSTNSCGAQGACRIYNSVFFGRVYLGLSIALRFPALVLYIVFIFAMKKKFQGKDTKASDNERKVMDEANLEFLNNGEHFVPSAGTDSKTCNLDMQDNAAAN

[2] = tested on: CYP (cytochrome P450 enzymes); assay: CYP inhibition in vitro
[3] = PK of single agents vs fixed dose combinations (FDC), single oral dose in healthy volunteers; type: in vivo, human; conditions: for Cmax: read-out: Cmax (mean ± SD); for AUC(0-t): read-out: AUClast (mean ± SD); for AUC(0-inf): read-out: AUC∞ (mean ± SD)
Method: SMV (100 mg), ODV (50 mg), and Compound (III) (800 mg) were administered as three different formulations or together as single doses in vivo to healthy volunteers. The arms of the study included: • Arm 1 (Reference Arm): Single oral doses of single agents, one SMV 100-mg capsule, one ODV 50-mg tablet as granule layered solid dispersion with copovidone and poloxamers, and two Compound (III) 400-mg tablets, administered together. • Arm 2: Single oral dose of fixed dose combination (FDC02): SMV 100 mg+ODV 50 mg as a spray dried solid dispersion with HPMC-AS L in a ratio ODV/HPMC-AS L 1/1 w/w+Compound (III) 800 mg • Arm 3: Single oral dose of fixed dose combination (FDC04): SMV 100 mg+ODV 50 mg as a spray dried solid dispersion with HPMC-AS L in a ratio ODV/HPMC-AS L 1/3 w/w+Compound (III) 800 mg • Arm 4: Single oral dose of fixed dose combination (FDC01): SMV 100 mg+ODV 50 mg as a spray dried solid dispersion with copovidone and poloxamers+Compound (III) 800 mg
PK parameters, including Cmax, tmax, AUClast, and AUC∞ were measured for Compound (III), ODV, SMV, and metabolites Compound A-I and Compound A-3 for each Arm of the study. Arms that included fixed dose combinations (FDC) (Arm 2, Arm 3, and Arm 4) were then compared to a single oral dose (Arm 1, the reference Arm). Table 9, Table 10, Table 11, Table 12 and Table 13 display relevant PK parameters and FIG. 9, FIG. 10, FIG. 11, FIG. 12, and FIG. 13 depict the plasma concentration over time of SMV, ODV, Compound A-1, and Compound A-3 for each Arm of the study.

[4] = Phase-1 drug-drug interaction study in healthy volunteers (Compound (III) 800 mg, SMV 150 mg, Odalasvir 150 mg loading then 50 mg, once daily): plasma PK; type: in vivo, human; conditions: both sexes, human, in vivo; for AUC0-24: read-out: AUC0-24; for Cmax: read-out: Cmax
Source text: The following daily doses were employed:

[5] = target: T2, OATP1B1 (Homo sapiens, UniProt Q9Y6L6); conditions: in vitro; cited from earlier work
T2 sequence (Q9Y6L6 1-691): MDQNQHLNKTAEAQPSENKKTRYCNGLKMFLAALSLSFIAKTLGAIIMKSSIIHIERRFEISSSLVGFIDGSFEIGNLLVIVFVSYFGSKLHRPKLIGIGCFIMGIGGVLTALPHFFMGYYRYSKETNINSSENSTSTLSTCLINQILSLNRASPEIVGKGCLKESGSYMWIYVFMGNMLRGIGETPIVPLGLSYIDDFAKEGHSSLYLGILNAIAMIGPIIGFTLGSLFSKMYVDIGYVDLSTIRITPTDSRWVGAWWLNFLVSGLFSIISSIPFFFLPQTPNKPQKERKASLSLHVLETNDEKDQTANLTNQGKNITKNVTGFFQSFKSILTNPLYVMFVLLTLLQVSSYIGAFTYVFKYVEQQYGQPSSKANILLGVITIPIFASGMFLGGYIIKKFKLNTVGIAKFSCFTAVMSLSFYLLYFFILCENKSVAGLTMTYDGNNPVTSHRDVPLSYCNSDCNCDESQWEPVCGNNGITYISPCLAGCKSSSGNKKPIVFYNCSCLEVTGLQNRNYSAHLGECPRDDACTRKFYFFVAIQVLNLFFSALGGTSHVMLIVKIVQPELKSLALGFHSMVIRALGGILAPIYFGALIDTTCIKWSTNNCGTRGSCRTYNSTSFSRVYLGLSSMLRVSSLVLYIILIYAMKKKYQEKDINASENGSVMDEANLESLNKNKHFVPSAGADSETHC

[6] = target: P-gp (Homo sapiens, UniProt P08183); conditions: in vitro; cited from earlier work
[7] = Arm 2 (FDC02) vs reference (Arm 1)
[8] = Arm 3 (FDC04) vs reference (Arm 1)
[9] = Arm 4 (FDC01) vs reference (Arm 1)
[10] = human, in vivo, Arm 1 (reference): single agents together
[11] = Group 1, Day 3, Compound (III) alone
[12] = Group 1, Day 13 (Compound (III) + SMV)
[13] = Group 1, Day 23 (Compound (III) + SMV + ODV)
[14] = Group 2, Day 3 (Compound (III) alone)
[15] = Group 2, Day 13 (Compound (III) + SMV)
[16] = Group 2, Day 23 (Compound (III) + SMV + ODV)

P-gp, sequence (P08183 whole entry): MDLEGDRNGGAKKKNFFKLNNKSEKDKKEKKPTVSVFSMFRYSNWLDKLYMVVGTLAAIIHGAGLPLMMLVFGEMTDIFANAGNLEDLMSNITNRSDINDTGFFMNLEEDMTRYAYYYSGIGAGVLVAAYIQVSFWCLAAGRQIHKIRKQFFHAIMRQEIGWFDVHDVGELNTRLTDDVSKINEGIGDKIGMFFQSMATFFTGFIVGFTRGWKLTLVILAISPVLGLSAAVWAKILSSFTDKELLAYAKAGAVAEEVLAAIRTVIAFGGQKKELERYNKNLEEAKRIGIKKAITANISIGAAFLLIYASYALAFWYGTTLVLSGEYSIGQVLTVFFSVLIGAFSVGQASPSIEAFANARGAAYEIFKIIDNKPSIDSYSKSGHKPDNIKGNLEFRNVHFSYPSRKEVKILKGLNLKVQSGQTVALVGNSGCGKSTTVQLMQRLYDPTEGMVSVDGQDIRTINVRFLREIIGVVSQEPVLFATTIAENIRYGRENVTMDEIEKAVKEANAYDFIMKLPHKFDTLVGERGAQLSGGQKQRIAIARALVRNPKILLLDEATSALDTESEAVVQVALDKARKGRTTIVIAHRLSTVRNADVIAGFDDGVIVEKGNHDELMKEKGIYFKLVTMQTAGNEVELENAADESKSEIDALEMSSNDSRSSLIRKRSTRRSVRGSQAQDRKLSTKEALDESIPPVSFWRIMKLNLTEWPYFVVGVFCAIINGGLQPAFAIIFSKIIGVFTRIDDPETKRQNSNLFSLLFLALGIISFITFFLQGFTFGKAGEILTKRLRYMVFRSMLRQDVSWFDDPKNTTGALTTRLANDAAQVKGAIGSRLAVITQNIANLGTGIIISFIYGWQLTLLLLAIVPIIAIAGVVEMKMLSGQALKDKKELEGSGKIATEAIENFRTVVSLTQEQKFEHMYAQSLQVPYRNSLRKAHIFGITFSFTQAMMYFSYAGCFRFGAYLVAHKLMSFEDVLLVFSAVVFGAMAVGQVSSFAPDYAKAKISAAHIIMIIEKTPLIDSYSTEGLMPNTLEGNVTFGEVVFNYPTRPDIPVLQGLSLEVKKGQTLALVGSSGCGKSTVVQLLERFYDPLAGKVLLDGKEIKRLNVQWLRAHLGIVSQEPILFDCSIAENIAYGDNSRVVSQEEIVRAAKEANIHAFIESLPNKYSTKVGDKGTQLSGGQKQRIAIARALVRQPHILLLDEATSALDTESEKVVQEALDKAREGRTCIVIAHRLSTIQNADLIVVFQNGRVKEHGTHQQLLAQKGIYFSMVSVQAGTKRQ

In the case of `CC(C)OC(=O)[C@H](C)N[P@](=O)(OC[C@@]1(F)O[C@@H](n2ccc(=O)[nH]c2=O)[C@](C)(O)[C@@H]1O)Oc1ccccc1` [Compound (III), isopropyl ((S)-(((2S,3S,4R,5R)-5-(2,4-dioxo-3,4-dihydropyrimidin-1 (2H)-yl)-2-fluoro-3,4-dihydroxy-4-methyltetrahydrofuran-2-yl)methoxy)(phenoxy)phosphoryl)-L-alaninate], the “OATP1B3 inhibition (in words)” value [1] is listed as “no in vitro inhibition”, the IC50 [2] is listed as over 26 µM and the “CYP inhibition potential (in words)” value ([2]; on any CYP) is listed as “limited CYP inhibition potential”. The “t1/2term (mean ± SD)” value ([3]; Arm 1 (reference): single agents together) was 36 ± 6 min, the “Least Square Means Ratio, AUClast” value [3, 7] was 110.22% and the “Least Square Means Ratio, AUC∞” value [3, 7] was 111.86%. The “Least Square Means Ratio, Cmax” value [3, 7] was 109.68%, the “t1/2term (mean ± SD)” value ([3]; Arm 2: FDC02) was 42 ± 12 min and the “tmax (median [range])” value ([3]; Arm 2: FDC02) was 2.00 (0.50-4.00) h. The “Least Square Means Ratio, AUClast” value [3, 8] was 127.06%, the “Least Square Means Ratio, AUC∞” value [3, 8] was 138.97% and the “Least Square Means Ratio, Cmax” value [3, 8] was 122.40%. The “t1/2term (mean ± SD)” value ([3]; Arm 3: FDC04) was 42 ± 6 min, the “tmax (median [range])” value ([3]; Arm 3: FDC04) was 2.00 (1.00-4.00) h and the “Least Square Means Ratio, AUClast” value [3, 9] was 151.72%. The “Least Square Means Ratio, AUC∞” value [3, 9] was 144.80%, the “Least Square Means Ratio, Cmax” value [3, 9] was 145.56% and the “t1/2term (mean ± SD)” value ([3]; Arm 4: FDC01) was 36 ± 6 min. For the same molecule, the “tmax (median [range])” value ([3]; Arm 4: FDC01) was 2.00 (1.00-4.00) h, the Cmax ([3]; human, in vivo, Arm 1 (reference): single agents together, SMV 100-mg capsule, ODV 50-mg tablet, two Compound (III) 400-mg tablets) was 484 ± 177 ng/mL and the AUC(0-t) [3, 10] was 1160 ± 497 ng·h/mL. The AUC(0-inf) [3, 10] was 1180 ± 524 ng·h/mL, the Tmax ([3]; human, in vivo, Arm 1 (reference): single agents together, read-out: tmax (median [range])) was 120 min and the Cmax ([3]; human, in vivo, Arm 2: FDC02, SMV 100 mg + ODV 50 mg (ODV/HPMC-AS L 1/1 w/w) + Compound (III) 800 mg) was 544 ± 225 ng/mL. The AUC(0-t) ([3]; human, in vivo, Arm 2: FDC02) was 1260 ± 411 ng·h/mL, the AUC(0-inf) ([3]; human, in vivo, Arm 2: FDC02) was 1300 ± 420 ng·h/mL and the Cmax ([3]; human, in vivo, Arm 3: FDC04, SMV 100 mg + ODV 50 mg (ODV/HPMC-AS L 1/3 w/w) + Compound (III) 800 mg) was 617 ± 295 ng/mL. For the same molecule, the AUC(0-t) ([3]; human, in vivo, Arm 3: FDC04) was 1440 ± 450 ng·h/mL, the AUC(0-inf) ([3]; human, in vivo, Arm 3: FDC04) was 1580 ± 434 ng·h/mL and the Cmax ([3]; human, in vivo, Arm 4: FDC01, SMV 100 mg + ODV 50 mg (copovidone and poloxamers) + Compound (III) 800 mg) was 745 ± 381 ng/mL. For the same molecule, the AUC(0-t) ([3]; human, in vivo, Arm 4: FDC01) was 1830 ± 866 ng·h/mL, the AUC(0-inf) ([3]; human, in vivo, Arm 4: FDC01) was 1790 ± 889 ng·h/mL and the AUC0-24 [4, 11] was 292 ng·h/mL. It also gave a Cmax [4, 11] of 162 ng/mL, an AUC0-24 [4, 12] of 1000 ng·h/mL and a Cmax [4, 12] of 376 ng/mL. The AUC0-24 [4, 13] was 2090 ng·h/mL, the Cmax [4, 13] was 747 ng/mL and the AUC0-24 [4, 14] was 325 ng·h/mL. For the same molecule, the Cmax [4, 14] was 151 ng/mL, the AUC0-24 [4, 15] was 1300 ng·h/mL and the Cmax [4, 15] was 516 ng/mL. For the same molecule, the AUC0-24 [4, 16] was 2910 ng·h/mL, the Cmax [4, 16] was 950 ng/mL and the “OATP1B1 inhibition (in words)” value [5] was “no in vitro inhibition”. For the same molecule, the “P-gp inhibition (in words)” value [6] was “no in vitro inhibition”.
